According to the supplement of paper PMC11919725:

Legend:
Jurkat [1] = test: metabolic activity relative to DMSO, 18 h (ratio); higher = more viable
Method in brief: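 Jurkat or primary CD4+/CD8+ T cells (naive, or activated 48 h with CD3/CD28 Dynabeads) were treated 18 h with compound at 1 nM–10 µM (log10 steps) at 37 °C, 5% CO2. Then 100 µl of suspension went into 96-well plates with alamarBlue (10% v/v final). After 3.5 h, fluorescence was read on a FluoStar Omega (excitation 544 nm, emission 584 nm). Metabolic activity is normalised to mean DMSO controls.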

Jurkat [2] = test: confluency relative to DMSO, 18 h (ratio); higher = more viable
Method in brief: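 Jurkat cells and primary CD4+/CD8+ T cells, naive or activated with CD3/CD28 Dynabeads for 48 h, were treated with compound (1 nM–10 µM, log10 steps) for 18 h at 37 °C. Following transfer of 100 µl into 96-well plates with IncuCyte Cytotox Dye and alamarBlue, wells were imaged at ×10, five images per well, each hour for 3 h. Confluency, obtained with the IncuCyte Basic Analyzer from phase-contrast images, is normalised to the mean of the control wells.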

Jurkat [3] = test: cytotoxicity relative to DMSO, 18 h (ratio); higher = less cell death (drugs called cytotoxic fall below 1)
Method in brief: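 Fluorescence was imaged at ×10, five images per well, every hour for 3 h, in 96-well plates holding 100 µl of treated cell suspension and IncuCyte Cytotox Dye at 250 nM final. Before plating, Jurkat cells or primary CD4+/CD8+ T cells (naive, or activated 48 h with CD3/CD28 Dynabeads) had been treated for 18 h with compound across 1 nM–10 µM in log10 steps at 37 °C, 5% CO2. Cytotoxicity values were based on these IncuCyte signals after confluency correction and normalisation to the mean of control wells.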

Row | SMILES | metabolic activity (Jurkat [1]; 1 nM) | metabolic activity (Jurkat [1]; 10 nM) | metabolic activity (Jurkat [1]; 100 nM) | metabolic activity (Jurkat [1]; 1000 nM) | metabolic activity (Jurkat [1]; 10000 nM) | confluency (Jurkat [2]; 1 nM) | confluency (Jurkat [2]; 10 nM) | confluency (Jurkat [2]; 100 nM) | confluency (Jurkat [2]; 1000 nM) | confluency (Jurkat [2]; 10000 nM) | cytotoxicity (Jurkat [3]; 1 nM) | cytotoxicity (Jurkat [3]; 10 nM) | cytotoxicity (Jurkat [3]; 100 nM) | cytotoxicity (Jurkat [3]; 1000 nM) | cytotoxicity (Jurkat [3]; 10000 nM)
1 | COc1cc2c(c(OC)c1OC)-c1ccc(OC)c(=O)cc1C(NC(C)=O)CC2 (stereo not given) [Colchicine] | 0.862 | 0.83 | 0.595 | 0.519 | 0.476 | 1 | 1.03 | 0.72 | 0.663 | 0.637 | 0.985 | 1.19 | 0.649 | 0.552 | 0.539
2 | C=CCNC1=C2CC(C)CC(OC)C(O)C(C)C=C(C)C(OC(N)=O)C(OC)C=CC=C(C)C(=O)NC(=CC1=O)C2=O (stereo not given) [Tanespimycin] | 0.935 | 0.939 | 0.999 | 0.835 | 0.795 | 0.985 | 0.872 | 0.982 | 0.7 | 0.734 | 0.913 | 0.813 | 0.913 | 0.585 | 0.628
3 | CNC(=O)c1nn(C)c2c1C(C)(C)Cc1cnc(Nc3ccc(N4CCN(C)CC4)cc3)nc1-2 [Milciclib] | 1.05 | 0.965 | 0.953 | 0.684 | 0.809 | 1.01 | 0.985 | 1.01 | 0.969 | 1.01 | 0.986 | 0.958 | 0.956 | 0.794 | 0.897
4 | O=P1(N(CCCl)CCCl)NCCCO1 (stereo not given) [Cyclophosphamide] | 1.14 | 1.07 | 1.04 | 1.02 | 1.03 | 1.01 | 0.94 | 0.948 | 0.977 | 0.951 | 1.16 | 0.989 | 0.959 | 0.983 | 0.977
5 | COc1ccc(F)c(F)c1C(=O)c1cnc(NC2CCN(S(C)(=O)=O)CC2)nc1N [R-547] | 1.09 | 1.02 | 1 | 0.739 | 0.134 | 1.07 | 1.18 | 1.04 | 1.04 | 1.01 | 1.01 | 0.934 | 1.08 | 1.04 | 1.04
6 | COc1cccc2c1C(=O)c1c(O)c3c(c(O)c1C2=O)CC(O)(C(=O)CO)CC3OC1CC(N)C(O)C(C)O1 (stereo not given) [Doxorubicin] | 1.09 | 0.901 | 0.89 | 0.823 | 0.342 | 1.04 | 0.98 | 0.995 | 0.993 | 1.07 | 1.05 | 0.983 | 0.967 | 0.871 | 0.618
7 | COc1ccc(-c2ccc3c(N4CCOCC4C)nc(N4CCOCC4C)nc3n2)cc1CO (stereo not given) [AZD-8055] | 0.971 | 0.823 | 0.622 | 0.572 | 0.537 | 0.982 | 1 | 0.96 | 0.99 | 0.99 | 0.884 | 0.815 | 0.84 | 0.834 | 0.823
8 | CC(Oc1cc(-c2cnn(C3CCNCC3)c2)cnc1N)c1c(Cl)ccc(F)c1Cl (stereo not given) [Crizotinib] | 0.831 | 0.944 | 0.836 | 0.975 | 0.882 | 1.1 | 0.657 | 1 | 0.919 | 0.771 | 0.908 | 0.369 | 1.08 | 0.848 | 0.768
9 | Nc1ccccc1NC(=O)c1ccc(CNc2nccc(-c3cccnc3)n2)cc1 [Mocetinostat] | 0.892 | 0.841 | 0.822 | 0.747 | 0.3 | 1 | 1.02 | 1 | 0.76 | 0.886 | 0.997 | 1.01 | 0.975 | 0.726 | 0.636
10 | O=C1CCC(N2C(=O)c3ccccc3C2=O)C(=O)N1 (stereo not given) [Thalidomide] | 1.17 | 1.26 | 1.27 | 1.13 | 0.925 | 0.954 | 0.93 | 1 | 0.99 | 0.975 | 0.981 | 1 | 1.1 | 0.991 | 0.855
11 | COc1ccc(-c2ccc3ncc4c(c3c2)n(-c2ccc(N3CCNCC3)c(C(F)(F)F)c2)c(=O)n4C)cn1 [BGT-226] | 0.968 | 0.842 | 0.693 | 0.604 | 0.048 | 1.03 | 0.954 | 0.935 | 0.793 | 0.831 | 1.02 | 0.915 | 0.808 | 0.672 | 0.448
12 | Nc1cccc2c1C(=O)N(C1CCC(=O)NC1=O)C2=O (stereo not given) [Pomalidomide] | 0.995 | 1.01 | 1.04 | 1.12 | 1.09 | 0.955 | 0.902 | 0.943 | 0.948 | 0.94 | 1.04 | 0.986 | 0.512 | 1.03 | 0.936
13 | CCc1cnn2c(NCc3ccc[n+]([O-])c3)cc(N3CCCCC3CCO)nc12 (stereo not given) [Dinaciclib] | 0.162 | 0.147 | 0.13 | 0.139 | 0.128 | 0.988 | 1.02 | 0.864 | 0.871 | 1.16 | 0.926 | 1.03 | 0.821 | 0.989 | 1.09
14 | COCCN1CCN(Cc2ccc(-c3n[nH]c4c3C(=O)c3c(NC(=O)NN5CCOCC5)cccc3-4)cc2)CC1.Cl.Cl | 1.05 | 0.968 | 0.223 | 0.221 | 0.198 | 0.976 | 0.788 | 0.898 | 0.951 | 0.909 | 0.969 | 0.715 | 0.581 | 0.639 | 0.62
15 | CCC(CO)Nc1nc(NCc2ccccc2)c2ncn(C(C)C)c2n1 (stereo not given) [Seliciclib] | 0.994 | 0.987 | 0.945 | 0.962 | 1.03 | 1.03 | 0.968 | 0.924 | 0.977 | 0.943 | 1.02 | 0.922 | 0.883 | 0.948 | 0.957
16 | O=C1NC(=O)C(=Cc2ccc3nccc(-c4ccncc4)c3c2)S1 | 0.992 | 0.956 | 0.964 | 0.723 | 0.426 | 0.989 | 0.988 | 0.968 | 0.812 | 1.01 | 0.944 | 0.984 | 0.956 | 0.762 | 0.804
17 | COc1cc(Nc2ncc(F)c(Nc3ccc4c(n3)N(COP(=O)(O)O)C(=O)C(C)(C)O4)n2)cc(OC)c1OC [Fostamatinib] | 1.21 | 1.23 | 1.1 | 1.01 | 0.925 | 1 | 0.995 | 0.961 | 0.911 | 0.821 | 1.06 | 1.05 | 0.951 | 0.893 | 0.783
18 | CCC(C)(Nc1ccnc(-c2c[nH]c3ncccc23)n1)C(=O)NCC(F)(F)F (stereo not given) [Decernotinib] | 1.08 | 1.08 | 1.02 | 1.05 | 1.07 | 1.03 | 1.03 | 0.996 | 0.993 | 0.96 | 1.1 | 1.09 | 1.01 | 1.04 | 1.03
19 | CCN(c1cc(-c2ccc(CN3CCOCC3)cc2)cc(C(=O)NCc2c(C)cc(C)[nH]c2=O)c1C)C1CCOCC1 [Tazemetostat] | 0.926 | 0.932 | 0.939 | 1.12 | 1.24 | 0.999 | 0.961 | 0.898 | 0.926 | 0.97 | 0.997 | 0.928 | 0.843 | 0.912 | 1.05
20 | Nc1ccn(C2OC(CO)C(O)C2(F)F)c(=O)n1 (stereo not given) [Gemcitabine] | 1 | 1.07 | 0.61 | 0.712 | 0.724 | 0.916 | 0.993 | 1.04 | 0.732 | 0.69 | 0.927 | 1.01 | 0.921 | 0.651 | 0.602
21 | CC(=O)OC1C(=O)C2(C)C(O)CC3OCC3(OC(C)=O)C2C(OC(=O)c2ccccc2)C2(O)CC(OC(=O)C(O)C(NC(=O)c3ccccc3)c3ccccc3)C(C)=C1C2(C)C (stereo not given) [Paclitaxel] | 1.05 | 0.568 | 0.576 | 0.534 | 0.744 | 1 | 0.989 | 0.964 | 0.939 | 0.81 | 1.16 | 0.953 | 0.883 | 0.854 | 0.797
22 | CN1CCC(c2c(O)cc(O)c3c(=O)cc(-c4ccccc4Cl)oc23)C(O)C1 (stereo not given) [Alvocidib] | 1.04 | 0.946 | 0.712 | 0.086 | 0.108 | 0.999 | 0.999 | 0.974 | 0.927 | 0.939 | 1.03 | 0.92 | 0.89 | 0.505 | 0.526
23 | CCN(CC)CCNC(=O)c1c(C)[nH]c(C=C2C(=O)Nc3ccc(F)cc32)c1C [Sunitinib] | 1.07 | 0.92 | 0.991 | 0.874 | 0.795 | 0.994 | 0.89 | 0.969 | 0.836 | 0.635 | 0.992 | 0.874 | 1.01 | 0.752 | 0.546
24 | CC(C)(CNC(=O)c1cccc(-c2noc(C(F)(F)F)n2)c1)c1coc(-c2ccccc2)n1 [TMP195] | 1.02 | 0.877 | 0.921 | 0.94 | 1.02 | 1.02 | 0.934 | 1.08 | 1.04 | 1.02 | 0.995 | 0.915 | 1.12 | 1.06 | 1.06
25 | COc1ccc(Cl)c(Nc2nc3ccccc3nc2NS(=O)(=O)c2cccc(NC(=O)C(C)(C)N)c2)c1 [Pilaralisib] | 1.02 | 1.03 | 1.03 | 0.939 | 0.877 | 0.978 | 1.01 | 1.01 | 0.994 | 0.976 | 1.06 | 1.11 | 1.1 | 0.959 | 0.942
26 | Cc1c2oc3c(C)ccc(C(=O)NC4C(=O)NC(C(C)C)C(=O)N5CCCC5C(=O)N(C)CC(=O)N(C)C(C(C)C)C(=O)OC4C)c3nc-2c(C(=O)NC2C(=O)NC(C(C)C)C(=O)N3CCCC3C(=O)N(C)CC(=O)N(C)C(C(C)C)C(=O)OC2C)c(N)c1=O (stereo not given) [Actinomycin D] | 0.959 | 0.746 | 0.2 | 0.152 | 0.192 | 1.11 | 1.09 | 0.972 | 0.907 | 0.923 | 1.08 | 1.02 | 0.661 | 0.517 | 0.477
27 | Cc1cc(C(C)Nc2ccccc2C(=O)O)c2nc(N3CCOCC3)cc(=O)n2c1 (stereo not given) [AZD-6482] | 1.16 | 1.14 | 1.03 | 1.03 | 0.923 | 1.03 | 1.03 | 0.994 | 0.984 | 0.928 | 1.19 | 1.22 | 1.14 | 1.06 | 0.946
28 | Cc1nc(-c2cccnc2)sc1C(=O)Nc1ccccc1-c1cn2c(CN3CCOCC3)csc2n1 [SRT2104] | 1.03 | 1.01 | 1.03 | 1.03 | 0.982 | 1.06 | 1.02 | 1.05 | 1.04 | 0.971 | 1.13 | 1.06 | 1.13 | 1.11 | 1.05
29 | O=C(O)C(=O)O.[NH-]C1CCCCC1[NH-].[Pt+2] (stereo not given) [Oxaliplatin] | 0.909 | 0.865 | 0.936 | 0.884 | 0.991 | 0.84 | 0.755 | 1.01 | 0.989 | 0.969 | 0.835 | 0.765 | 1.05 | 1.04 | 1.1
